Each structure is given as a SMILES string.

Test [1] concerns the target T1, recombinant human Meningioma Expressed Antigen 5 (MGEA5), also referred to as O-GlcNAcase (OGA) (Homo sapiens, UniProt O60502).
T1 construct: Full length OGA enzyme was purchased at OriGene (cat #TP322411); purchased OriGene TP322411
T1 sequence (O60502 1-916): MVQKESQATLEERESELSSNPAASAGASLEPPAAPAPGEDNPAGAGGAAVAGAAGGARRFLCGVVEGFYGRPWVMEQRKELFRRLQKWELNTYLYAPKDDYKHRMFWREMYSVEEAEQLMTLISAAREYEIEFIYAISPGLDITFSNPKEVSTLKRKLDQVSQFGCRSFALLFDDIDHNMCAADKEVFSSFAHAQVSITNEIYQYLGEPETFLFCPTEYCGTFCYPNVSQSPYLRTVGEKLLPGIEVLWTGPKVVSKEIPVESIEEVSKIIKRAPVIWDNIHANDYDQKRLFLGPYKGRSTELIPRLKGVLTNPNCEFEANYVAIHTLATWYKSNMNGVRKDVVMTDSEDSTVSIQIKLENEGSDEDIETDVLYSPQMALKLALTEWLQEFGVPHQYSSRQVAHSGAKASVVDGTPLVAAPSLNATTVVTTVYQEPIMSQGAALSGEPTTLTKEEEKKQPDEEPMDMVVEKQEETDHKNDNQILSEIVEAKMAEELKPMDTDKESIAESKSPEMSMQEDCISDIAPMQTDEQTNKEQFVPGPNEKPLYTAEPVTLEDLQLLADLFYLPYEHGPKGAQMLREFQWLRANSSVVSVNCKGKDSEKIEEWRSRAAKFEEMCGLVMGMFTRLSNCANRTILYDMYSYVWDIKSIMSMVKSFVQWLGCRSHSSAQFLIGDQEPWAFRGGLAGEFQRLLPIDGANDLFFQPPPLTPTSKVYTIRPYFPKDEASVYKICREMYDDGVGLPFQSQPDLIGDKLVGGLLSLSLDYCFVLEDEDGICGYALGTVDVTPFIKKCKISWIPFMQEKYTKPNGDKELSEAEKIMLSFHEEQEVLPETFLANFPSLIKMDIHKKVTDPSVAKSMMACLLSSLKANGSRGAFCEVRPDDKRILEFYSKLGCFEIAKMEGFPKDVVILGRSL
Briefly: OGA biochemical assay (inhibition of FM-GlcNAc hydrolysis, fluorescence). To be noted: FM-GlcNAc substrate; for IC50: 6 h at room temperature, read-out: Enzymatic hOGA, pIC50 (converted); for Enzymatic Emax (%) / Emax: maximal effect; for Emax: read-out: Enzymatic Emax (%). An outline of the steps:
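Full-length human OGA (2 nM) pre-incubated 60 min at room temperature with compound, then FM-GlcNAc (100 µM final) added in citrate/phosphate buffer pH 7.2 with 0.005% Tween-20; 6 h at room temperature, stopped with carbonate pH 11.0. Fluorescein read at 485/538 nm; IC50 and Hill coefficient from curve fit.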

A further test deals with T2, OGA (Homo sapiens, UniProt O60502).
T2 construct: endogenous in cells; host or cells: HEK293 cells inducible for P301L mutant human Tau (isoform 2N4R)
T2 sequence (O60502 1-916): T1 sequence (O60502 1-916)
Nature of the test: OGA cellular assay (ICC detection of O-GlcNAcylated proteins in HEK293 cells inducible for P301L mutant human Tau). The conditions noted are these: for EC50 / Cellular Emax (%) / Cellular hOGA; pEC50: HEK293 cells inducible for P301L mutant human Tau; for EC50 / Cellular hOGA; pEC50: 6 hours incubation, ICC O-GlcNAcylation; for EC50: read-out: Cellular hOGA, pEC50 (converted); for Cellular Emax (%) / Emax: maximum defined by Thiamet G at 200 uM; for Emax: HEK293, HEK293 cells inducible for P301L mutant human Tau. The test is classed as cell-based. As for the experimental part:
HEK293 cells inducible for P301L mutant human Tau (isoform 2N4R) were established at Janssen. Thiamet-G was used for both plate validation (high control) and as reference compound (reference EC50 assay validation). OGA inhibition is evaluated through the immunocytochemical (ICC) detection of O-GlcNAcylated proteins by the use of a monoclonal antibody (CTD110.6; Cell Signaling, #9875) detecting O-GlcNAcylated residues as previously described (Dorfmueller et al. 2010 Chemistry & biology, 17:1250). Inhibition of OGA will result in an increase of O-GlcNAcylated protein levels resulting in an increased signal in the experiment. Cell nuclei are stained with Hoechst to give a cell culture quality control and a rough estimate of immediate compounds toxicity, if any. ICC pictures are imaged with a Perkin Elmer Opera Phenix plate microscope and quantified with the provided software Perkin Elmer Harmony 4.1.
Cells were propagated in DMEM high Glucose (Sigma, #D5796) following standard procedures. 2 days before the cell assay cells are split, counted and seeded in Poly-D-Lysine (PDL) coated 96-wells (Greiner, #655946) plate at a cell density of 12,000 cells per cm^2 (4,000 cells per well) in 100 μl of Assay Medium (Low Glucose medium is used to reduce basal levels of GlcNAcylation) (Park et al. 2014 The Journal of biological chemistry 289:13519). At the day of compound test medium from assay plates was removed and replenished with 90 μl of fresh Assay Medium. 10 μl of compounds at a 10 fold final concentration were added to the wells. Plates were centrifuged shortly before incubation in the cell incubator for 6 hours. DMSO concentration was set to 0.2%. Medium is discarded by applying vacuum. For staining of cells medium was removed and cells washed once with 100 μl D-PBS (Sigma, #D8537). From next step onwards unless other stated assay volume was always 50 μl and incubation was performed without agitation and at room temperature. Cells were fixed in 50 μl of a 4% paraformaldehyde (PFA, Alpha aesar, #043368) PBS solution for 15 minutes at room temperature. […] Before analysis samples were washed 2 times manually for 5 minutes in ICC base buffer.
Imaging is performed using Perkin Elmer Phenix Opera using a water 20× objective and recording 9 fields per well. Intensity readout at 488 nm is used as a measure of O-GlcNAcylation level of total proteins in wells. To assess potential toxicity of compounds nuclei were counted using the Hoechst staining. IC50-values are calculated using parametric non-linear regression model fitting. As a maximum inhibition Thiamet G at a 200 uM concentration is present on each plate. In addition, a concentration response of Thiamet G is calculated on each plate.

For `CC(c1ccc2c(n1)OCCO2)N1CC[C@@H](Oc2ccc(C#N)nn2)C1` (single isomer, unassigned) [Product 54], in test [1], the IC50 is greater than 10000 nM and the “Enzymatic Emax (%)” value is 19%. Further, at OGA, the EC50 was greater than 1000 nM and the “Cellular Emax (%)” value amounted to 2%.
For `CC(c1ccc2c(n1)OCCO2)N1CC[C@@H](Oc2ccc(C#N)nn2)C1` (single isomer, unassigned) [Product 55], in test [1], the IC50 is 200 nM and the “Enzymatic Emax (%)” value is on record as 94%. For the same molecule, at OGA, the “Cellular hOGA; pEC50” value was less than 6 and the “Cellular Emax (%)” value came to 24%.
For `Cc1cc(O[C@H]2CCN(C(C)c3ccc4c(n3)OCCO4)C2)cc(C)n1` (single isomer, unassigned) [Product 71], in test [1], the IC50 is 794 nM and the “Enzymatic Emax (%)” value is 99%. In addition, at OGA, the EC50 was greater than 1000 nM and the “Cellular Emax (%)” value was found to be 9%.
Consider `Cc1cc(O[C@H]2CCN(C(C)c3ccc4c(n3)OCCO4)C2)cc(C)n1` (single isomer, unassigned) [Product 72], for which, in test [1], the IC50 was greater than 10000 nM and the “Enzymatic Emax (%)” value worked out at 21%. At OGA, the “Cellular hOGA; pEC50” value is less than 6 and the “Cellular Emax (%)” value is −8%.
Turning to `Cc1cc(O[C@@H]2CCN(C(C)c3ccc4c(n3)OCCO4)C2)cc(C)n1` (single isomer, unassigned) [Product 74], in test [1], the IC50 is 7940 nM and the “Enzymatic Emax (%)” value worked out at 50%. On OGA, the EC50 was greater than 1000 nM and the “Cellular Emax (%)” value was −9%.
Regarding `Cc1cc(O[C@@H]2CCN(C(C)c3ccc4c(n3)OCCO4)C2)cc(C)n1` (single isomer, unassigned) [Product 75], in test [1], the IC50 is 39.8 nM and the “Enzymatic Emax (%)” value was 99%. For the same molecule, at OGA, the “Cellular hOGA; pEC50” value is given as less than 6 and the “Cellular Emax (%)” value came out at 34%.
As to `COc1cc(C[C@H]2CCN(C(C)c3nc4c(cc3F)CCO4)C2)cc(C)n1` (single isomer, unassigned) [Product 84], in test [1], the IC50 was 3.16 nM and the Emax was 102%. For the same molecule, on OGA, the Emax worked out at 100% and the EC50 is 15.8 nM.
For `COc1cc(CC2(C)CCN(C(C)c3ccc4c(n3)OCCO4)C2)cc(C)n1` (single isomer, unassigned) [Product 95], in that order: 79.4 nM, 100%, 39% and greater than 1000 nM.
With `Cc1cc(OC[C@]2(C)CCN([C@H](C)c3ccc4c(n3)OCCO4)C2)cc(C)n1` (single isomer, unassigned) [Product 100], in test [1], the IC50 is 2000 nM and the “Enzymatic Emax (%)” value amounted to 87%. Besides, at OGA, the EC50 is greater than 1000 nM and the “Cellular Emax (%)” value is recorded as −5%.
As for `Cc1cc(OC[C@]2(C)CCN([C@H](C)c3ccc4c(n3)OCCO4)C2)cc(C)n1` (single isomer, unassigned) [Product 101], in test [1], the IC50 is greater than 10000 nM and the “Enzymatic Emax (%)” value worked out at 13%. For the same molecule, on OGA, the “Cellular hOGA; pEC50” value is reported as less than 6 and the “Cellular Emax (%)” value was −4%.
Regarding `Cc1cc(OC[C@]2(C)CCN([C@H](C)c3ccc4c(n3)OCCO4)C2)cc(C)n1` (single isomer, unassigned) [Product 102], in test [1], the IC50 was 398 nM and the “Enzymatic Emax (%)” value turned out to be 93%. For the same molecule, on OGA, the “Cellular hOGA; pEC50” value is listed as less than 6 and the “Cellular Emax (%)” value is on record as 7%.
On the same counts, the results for `Cc1cc(OC[C@]2(C)CCN([C@H](C)c3ccc4c(n3)OCCO4)C2)cc(C)n1` (single isomer, unassigned) [Product 103] are greater than 10000 nM, 29%, less than 6 and −5%.
Take `Cc1cc(C[C@@H]2CCN([C@H](C)c3ccc4c(n3)OCCO4)C2)cc(C)n1` (single isomer, unassigned) [Product 104]: in test [1], the IC50 was 63.1 nM and the Emax is 100%. In addition, on OGA, the EC50 is 631 nM and the “Cellular Emax (%)” value is reported as 51%.
Regarding `Cc1cc(C[C@@H]2CCN([C@H](C)c3ccc4c(n3)OCCO4)C2)cc(C)n1` (single isomer, unassigned) [Product 105], in test [1], the IC50 was 794 nM and the “Enzymatic Emax (%)” value amounted to 91%. Also, at OGA, the EC50 is greater than 1000 nM and the “Cellular Emax (%)” value was 6%.
Turning to `COc1cc(C[C@@H]2CCN([C@H](C)c3ccc4c(n3)OCCO4)C2)cc(C)n1` (single isomer, unassigned) [Product 106], in test [1], the IC50 is 79.4 nM and the Emax is 100%. In addition, the “Cellular Emax (%)” value on OGA was 47%.
For `COc1cc(C[C@@H]2CCN([C@H](C)c3ccc4c(n3)OCCO4)C2)cc(C)n1` (single isomer, unassigned) [Product 107], in test [1], the IC50 is 1260 nM and the “Enzymatic Emax (%)” value was 90%. Besides, at OGA, the EC50 is greater than 1000 nM and the “Cellular Emax (%)” value is listed as −6%.
As to `COc1cc(C[C@H]2CN([C@H](C)c3ccc4c(n3)OCCO4)C[C@@H]2C)cc(C)n1` (stereo in doubt) [Product 121], in test [1], the IC50 is 50.1 nM and the Emax was found to be 99%. Besides, at OGA, the Emax amounted to 47% and the EC50 is greater than 1000 nM.
Take `COc1cc(C[C@@H]2CN([C@H](C)c3ccc4c(n3)OCCO4)C[C@H]2C)cc(C)n1` (stereo in doubt) [Product 122]: the Emax in test [1] came out at 49%. On OGA, the Emax is -7% and the EC50 was greater than 1000 nM.
For the molecule `COc1cc(C[C@H]2CN([C@@H](C)c3ccc4c(n3)OCCO4)C[C@@H]2C)cc(C)n1` (stereo in doubt) [Product 123], in test [1], the IC50 is 126 nM and the Emax was found to be 100%. Besides, on OGA, the Emax came to 47% and the EC50 was roughly 1000 nM.
Take `COc1cc(C[C@@H]2CN([C@@H](C)c3ccc4c(n3)OCCO4)C[C@H]2C)cc(C)n1` (stereo in doubt) [Product 124]: in test [1], the IC50 was greater than 10000 nM and the Emax stood at 40%. At OGA, the Emax was -3% and the EC50 is greater than 1000 nM.
